Measurements taken from ChEMBL document CHEMBL2069217, “Self-organizing molecular field analysis of NSAIDs: assessment of pharmacokinetic and physicochemical properties using 3D-QSPkR approach” (Eur J Med Chem, 2012).

Test: Dissociation constant, pKa of the compound
Type: physicochemical
Compound CC1=C(CC(=O)O)c2cc(F)ccc2/C1=C\c1ccc([S+](C)[O-])cc1 (stereo not drawn) has a pKa of 4.5.
In the case of CC(C(=O)O)c1ccc2oc(-c3ccc(Cl)cc3)nc2c1 (stereo not drawn) [BENOXAPROFEN], the pKa is reported as 6.9.
Compound CC(C(=O)O)c1ccc2c(c1)[nH]c1ccc(Cl)cc12 (stereo not drawn) [CARPROFEN] has a pKa of 4.7.
Cc1cccc(Nc2ccccc2C(=O)O)c1C [MEFENAMIC ACID] gave a pKa of 4.2.
In the case of O=C(O)CCc1nc(-c2ccccc2)c(-c2ccccc2)o1 [OXAPROZIN], the pKa is reported as 4.3.
In the case of CCCCC1C(=O)N(c2ccccc2)N(c2ccc(O)cc2)C1=O (stereo not drawn) [OXYPHENBUTAZONE ANHYDROUS], the pKa is reported as 4.7.
With CC(C(=O)O)c1ccc(C(=O)c2cccs2)cc1 (stereo not drawn) [SUPROFEN] the pKa was 4.
Cc1cc(CC(=O)O)n(C)c1C(=O)c1ccc(Cl)cc1 [ZOMEPIRAC] gave a pKa of 4.7.
